Results from PubChem BioAssay AID244 (DTP/NCI, 2004).
Where “and” joins values, the source holds several entries; their conditions need not be identical. Equal entries are not always repeated. Results filed as inconclusive are left out.

System: CD2F1 mice, Lymphoma 8 ip, survival T/C
Assay: NCI In Vivo Anticancer Drug Screen. Data for tumor model Lymphoma 8 (intraperitoneal) in CD2F1 (CDF1) mice
Details: higher = longer survival
Procedure: The antitumor activity of compounds was measured in mice bearing transplantable tumors. Survival or tumor size were measured and the results are expressed as the measurement made in the treated group (T) divided by the measurement made in the vehicle treated control group (C). The tumor model used in this assay is Lymphoma 8 (intraperitoneal) in CD2F1 (CDF1) mice

In the case of `NC(=O)C(N)CCO` (stereo not given), the T/C (endpoint: median survival time, dose: 50.0 mg/kg/injection, schedule: Q01DX009 (ip), vehicle: saline) is reported as 100 % of control and 102 % of control and 94 % of control, the T/C (endpoint: median survival time, dose: 100.0 mg/kg/injection, schedule: Q01DX009 (ip), vehicle: saline) is reported as 97 % of control [middle of 4 runs] and the T/C (endpoint: median survival time, dose: 100.0 mg/kg/injection, schedule: Q01DX010 (ip), vehicle: saline) is reported as 87 % of control and 88 % of control. For the same molecule, the T/C (endpoint: median survival time, dose: 200.0 mg/kg/injection, schedule: Q01DX009 (ip), vehicle: saline) was 98 % of control [middle of 4 runs], the T/C (endpoint: median survival time, dose: 200.0 mg/kg/injection, schedule: Q01DX010 (ip), vehicle: saline) was 91 % of control [middle of 4 runs] and the T/C (endpoint: median survival time, dose: 400.0 mg/kg/injection, schedule: Q01DX009 (ip), vehicle: saline) was 100 % of control [middle of 4 runs]. For the same molecule, the T/C (endpoint: median survival time, dose: 400.0 mg/kg/injection, schedule: Q01DX010 (ip), vehicle: saline) was 95 % of control [middle of 4 runs].
`O=C1C=CC(=O)N1` was tested, and the T/C (endpoint: median survival time, dose: 0.25 mg/kg/injection, schedule: Q01DX009 (ip), vehicle: saline) was 98 % of control and 109 % of control, the T/C (endpoint: median survival time, dose: 0.5 mg/kg/injection, schedule: Q01DX009 (ip), vehicle: saline) was 100 % of control and 102 % of control and the T/C (endpoint: median survival time, dose: 1.0 mg/kg/injection, schedule: Q01DX009 (ip), vehicle: saline) was 95 % of control and 102 % of control. The T/C (endpoint: median survival time, dose: 2.0 mg/kg/injection, schedule: Q01DX009 (ip), vehicle: saline) was 94 % of control and 95 % of control.
For `COc1cccc2c1C(=O)c1c(O)c3c(c(O)c1C2=O)C[C@@](O)(C(C)=O)C[C@@H]3OC1CC(N)C(O)C(C)O1` (stereo not given in full), the T/C (endpoint: median survival time, dose: 1.25 mg/kg/injection, schedule: Q01DX005 (ip), vehicle: saline) was 96 % of control and 101 % of control, the T/C (endpoint: median survival time, dose: 2.5 mg/kg/injection, schedule: Q01DX005 (ip), vehicle: saline) was 100 % of control and 105 % of control and the T/C (endpoint: median survival time, dose: 5.0 mg/kg/injection, schedule: Q01DX005 (ip), vehicle: saline) was 123 % of control. The T/C (endpoint: median survival time, dose: 10.0 mg/kg/injection, schedule: Q01DX005 (ip), vehicle: saline) was 82 % of control.
With `c1ccc(CNc2ncnc3[nH]ncc23)cc1` the T/C (endpoint: survival time, mean or median, dose: 8.0 mg/kg/injection, schedule: Q01DX010 (ip), vehicle: saline) was 100 % of control, the T/C (endpoint: survival time, mean or median, dose: 16.0 mg/kg/injection, schedule: Q01DX010 (ip), vehicle: saline) was 95 % of control and the T/C (endpoint: survival time, mean or median, dose: 32.0 mg/kg/injection, schedule: Q01DX010 (ip), vehicle: saline) was 95 % of control and 100 % of control. The T/C (endpoint: survival time, mean or median, dose: 64.0 mg/kg/injection, schedule: Q01DX010 (ip), vehicle: saline) was 90 % of control.
In the case of `CN(Cc1cnc2nc(N)nc(N)c2n1)c1ccc(C(=O)N[C@@H](CCC(=O)O)C(=O)O)cc1`, the T/C (endpoint: median survival time, dose: 0.75 mg/kg/injection, schedule: Q01DX005 (ip), vehicle: saline) is reported as 188 % of control and 195 % of control, the T/C (endpoint: median survival time, dose: 1.5 mg/kg/injection, schedule: Q01DX005 (ip), vehicle: saline) is reported as 161 % of control and 172 % of control and the T/C (endpoint: median survival time, dose: 3.0 mg/kg/injection, schedule: Q01DX005 (ip), vehicle: saline) is reported as 53 % of control.
For `NC(=O)OCC(N)C(=O)O` (stereo not given), the T/C (endpoint: median survival time, dose: 50.0 mg/kg/injection, schedule: Q01DX005 (ip), vehicle: saline) was 99 % of control and 100 % of control, the T/C (endpoint: median survival time, dose: 100.0 mg/kg/injection, schedule: Q01DX005 (ip), vehicle: saline) was 100 % of control and the T/C (endpoint: median survival time, dose: 200.0 mg/kg/injection, schedule: Q01DX005 (ip), vehicle: saline) was 88 % of control. For the same molecule, the T/C (endpoint: median survival time, dose: 400.0 mg/kg/injection, schedule: Q01DX005 (ip), vehicle: saline) was 92 % of control and 94 % of control.
With `NC(C/[N+]([O-])=N/O)C(=O)O` (stereo not given) the T/C (endpoint: median survival time, dose: 12.5 mg/kg/injection, schedule: Q01DX009 (ip), vehicle: other) was 119 % of control, the T/C (endpoint: median survival time, dose: 12.5 mg/kg/injection, schedule: Q01DX009 (ip), vehicle: saline + alcohol) was 113 % of control and the T/C (endpoint: median survival time, dose: 12.5 mg/kg/injection, schedule: Q01DX009 (ip), vehicle: water) was 116 % of control. The T/C (endpoint: median survival time, dose: 13.2 mg/kg/injection, schedule: Q01DX010 (ip), vehicle: alkali diluted with saline) was 174 % of control, the T/C (endpoint: median survival time, dose: 19.8 mg/kg/injection, schedule: Q01DX010 (ip), vehicle: alkali diluted with saline) was 197 % of control and the T/C (endpoint: median survival time, dose: 25.0 mg/kg/injection, schedule: Q01DX009 (ip), vehicle: other) was 120 % of control. For the same molecule, the T/C (endpoint: median survival time, dose: 25.0 mg/kg/injection, schedule: Q01DX009 (ip), vehicle: saline + alcohol) was 116 % of control, the T/C (endpoint: median survival time, dose: 25.0 mg/kg/injection, schedule: Q01DX009 (ip), vehicle: water) was 122 % of control and the T/C (endpoint: median survival time, dose: 29.6 mg/kg/injection, schedule: Q01DX010 (ip), vehicle: alkali diluted with saline) was 211 % of control. For the same molecule, the T/C (endpoint: median survival time, dose: 44.4 mg/kg/injection, schedule: Q01DX010 (ip), vehicle: alkali diluted with saline) was 180 % of control, the T/C (endpoint: median survival time, dose: 50.0 mg/kg/injection, schedule: Q01DX009 (ip), vehicle: other) was 98 % of control and the T/C (endpoint: median survival time, dose: 50.0 mg/kg/injection, schedule: Q01DX009 (ip), vehicle: water) was 150 % of control. For the same molecule, the T/C (endpoint: median survival time, dose: 66.7 mg/kg/injection, schedule: Q01DX010 (ip), vehicle: alkali diluted with saline) was 121 % of control, the T/C (endpoint: median survival time, dose: 100.0 mg/kg/injection, schedule: Q01DX009 (ip), vehicle: other) was 92 % of control and the T/C (endpoint: median survival time, dose: 100.0 mg/kg/injection, schedule: Q01DX009 (ip), vehicle: saline + alcohol) was 103 % of control. The T/C (endpoint: median survival time, dose: 100.0 mg/kg/injection, schedule: Q01DX009 (ip), vehicle: water) was 91 % of control and the T/C (endpoint: median survival time, dose: 100.0 mg/kg/injection, schedule: Q01DX010 (ip), vehicle: alkali diluted with saline) was 109 % of control.
For `CC[C@]1(O)C[C@H]2CN(CCc3c([nH]c4ccccc34)[C@@](C(=O)OC)(c3cc4c(cc3OC)N(C=O)[C@H]3[C@@](O)(C(=O)OC)[C@H](OC(C)=O)[C@]5(CC)C=CCN6CC[C@]43[C@@H]65)C2)C1`, the T/C (endpoint: median survival time, dose: 0.03 mg/kg/injection, schedule: Q01DX005 (ip), vehicle: saline) was 96 % of control and 104 % of control and 109 % of control, the T/C (endpoint: median survival time, dose: 0.06 mg/kg/injection, schedule: Q01DX005 (ip), vehicle: saline) was 100 % of control and 103 % of control and 105 % of control and the T/C (endpoint: median survival time, dose: 0.12 mg/kg/injection, schedule: Q01DX005 (ip), vehicle: saline) was 115 % of control and 118 % of control. The T/C (endpoint: median survival time, dose: 0.13 mg/kg/injection, schedule: Q01DX005 (ip), vehicle: saline) was 116 % of control.
`C[C@H]1C(=O)O[C@@H]2CCN3CC=C(COC(=O)[C@](C)(O)[C@@]1(C)O)[C@H]23` was tested, and the T/C (endpoint: survival time, mean or median, dose: 3.13 mg/kg/injection, schedule: Q01DX010 (ip), vehicle: saline) was 100 % of control, the T/C (endpoint: survival time, mean or median, dose: 6.25 mg/kg/injection, schedule: Q01DX010 (ip), vehicle: saline) was 100 % of control and the T/C (endpoint: survival time, mean or median, dose: 12.5 mg/kg/injection, schedule: Q01DX010 (ip), vehicle: saline) was 100 % of control. The T/C (endpoint: survival time, mean or median, dose: 25.0 mg/kg/injection, schedule: Q01DX010 (ip), vehicle: saline) was 100 % of control.
For `C[C@]12C=CC(=O)C=C1CC[C@@H]1[C@@H]2C(=O)C[C@@]2(C)[C@H]1CC[C@]2(O)C(=O)CO`, the T/C (endpoint: median survival time, dose: 12.5 mg/kg/injection, schedule: Q01DX005 (sc), vehicle: steriod suspending solution) was 105 % of control and 107 % of control and 108 % of control, the T/C (endpoint: median survival time, dose: 25.0 mg/kg/injection, schedule: Q01DX005 (sc), vehicle: steriod suspending solution) was 96 % of control and 104 % of control and 108 % of control and the T/C (endpoint: median survival time, dose: 50.0 mg/kg/injection, schedule: Q01DX005 (sc), vehicle: steriod suspending solution) was 96 % of control and 99 % of control and 100 % of control. For the same molecule, the T/C (endpoint: median survival time, dose: 100.0 mg/kg/injection, schedule: Q01DX005 (sc), vehicle: steriod suspending solution) was 100 % of control and 103 % of control and 104 % of control and the T/C (endpoint: median survival time, dose: 200.0 mg/kg/injection, schedule: Q01DX005 (sc), vehicle: steriod suspending solution) was 111 % of control and 112 % of control.
For `NC(=O)CC(N)C(=O)O` (stereo not given), the T/C (endpoint: median survival time, dose: 100.0 mg/kg/injection, schedule: Q01DX005 (ip), vehicle: water) was 91 % of control, the T/C (endpoint: median survival time, dose: 200.0 mg/kg/injection, schedule: Q01DX005 (ip), vehicle: water) was 100 % of control and the T/C (endpoint: median survival time, dose: 400.0 mg/kg/injection, schedule: Q01DX005 (ip), vehicle: water) was 100 % of control. For the same molecule, the T/C (endpoint: median survival time, dose: 800.0 mg/kg/injection, schedule: Q01DX005 (ip), vehicle: water) was 91 % of control.
